Experimental data as given in ChEMBL document CHEMBL4765227, “Hit to lead optimization of a series of N-[4-(1,3-benzothiazol-2-yl)phenyl]acetamides as monoacylglycerol lipase inhibitors with potential anticancer activity” (Eur J Med Chem, 2016).

Key:
Assay type in all cases: functional
Conditions in all cases: read-out: GI
[1] = tested on: HOP-92; assay: Growth inhibition of human HOP-92 cells at 10 uM incubated for 48 hrs by sulforhodamine B assay relative to control
[2] = tested on: SK-OV-3; assay: Growth inhibition of human SK-OV-3 cells at 10 uM incubated for 48 hrs by sulforhodamine B assay relative to control
[3] = tested on: A549; assay: Growth inhibition of human A549/ATCC cells at 10 uM incubated for 48 hrs by sulforhodamine B assay relative to control
[4] = tested on: Malme-3M; assay: Growth inhibition of human Malme-3M cells at 10 uM incubated for 48 hrs by sulforhodamine B assay relative to control
[5] = tested on: RPMI-8226; assay: Growth inhibition of human RPMI-8226 cells at 10 uM incubated for 48 hrs by sulforhodamine B assay relative to control
[6] = tested on: CCRF-CEM; assay: Growth inhibition of human CCRF-CEM cells at 10 uM incubated for 48 hrs by sulforhodamine B assay relative to control
[7] = tested on: MCF7; assay: Growth inhibition of human MCF7 cells at 10 uM incubated for 48 hrs by sulforhodamine B assay relative to control
[8] = tested on: OVCAR-3; assay: Growth inhibition of human OVCAR-3 cells at 10 uM incubated for 48 hrs by sulforhodamine B assay relative to control
[9] = tested on: KM12; assay: Growth inhibition of human KM12 cells at 10 uM incubated for 48 hrs by sulforhodamine B assay relative to control
[10] = tested on: HCT-15; assay: Growth inhibition of human HCT-15 cells at 10 uM incubated for 48 hrs by sulforhodamine B assay relative to control
[11] = tested on: NCI-H460; assay: Growth inhibition of human NCI-H460 cells at 10 uM incubated for 48 hrs by sulforhodamine B assay relative to control
[12] = tested on: MDA-MB-231; assay: Growth inhibition of human MDA-MB-231 cells at 10 uM incubated for 48 hrs by sulforhodamine B assay relative to control
[13] = tested on: HCT-116; assay: Growth inhibition of human HCT-116 cells at 10 uM incubated for 48 hrs by sulforhodamine B assay relative to control
[14] = tested on: 786-0; assay: Growth inhibition of human 786-0 cells at 10 uM incubated for 48 hrs by sulforhodamine B assay relative to control
[15] = tested on: SK-MEL-28; assay: Growth inhibition of human SK-MEL-28 cells at 10 uM incubated for 48 hrs by sulforhodamine B assay relative to control
[16] = tested on: COLO 205; assay: Growth inhibition of human COLO 205 cells at 10 uM incubated for 48 hrs by sulforhodamine B assay relative to control
[17] = tested on: DU-145; assay: Growth inhibition of human DU-145 cells at 10 uM incubated for 48 hrs by sulforhodamine B assay relative to control
[18] = tested on: TK-10; assay: Growth inhibition of human TK-10 cells at 10 uM incubated for 48 hrs by sulforhodamine B assay relative to control
[19] = tested on: SW-620; assay: Growth inhibition of human SW-620 cells at 10 uM incubated for 48 hrs by sulforhodamine B assay relative to control
[20] = tested on: T47D; assay: Growth inhibition of human T47D cells at 10 uM incubated for 48 hrs by sulforhodamine B assay relative to control
[21] = tested on: BT-549; assay: Growth inhibition of human BT-549 cells at 10 uM incubated for 48 hrs by sulforhodamine B assay relative to control
[22] = tested on: SNB-75; assay: Growth inhibition of human SNB-75 cells at 10 uM incubated for 48 hrs by sulforhodamine B assay relative to control
[23] = tested on: HCC 2998; assay: Growth inhibition of human HCC 2998 cells at 10 uM incubated for 48 hrs by sulforhodamine B assay relative to control
[24] = tested on: OVCAR-4; assay: Growth inhibition of human OVCAR-4 cells at 10 uM incubated for 48 hrs by sulforhodamine B assay relative to control
[25] = tested on: LOX IMVI; assay: Growth inhibition of human LOX IMVI cells at 10 uM incubated for 48 hrs by sulforhodamine B assay relative to control
[26] = tested on: SNB-19; assay: Growth inhibition of human SNB-19 cells at 10 uM incubated for 48 hrs by sulforhodamine B assay relative to control
[27] = tested on: UACC-62; assay: Growth inhibition of human UACC-62 cells at 10 uM incubated for 48 hrs by sulforhodamine B assay relative to control
[28] = tested on: MDA-MB-435; assay: Growth inhibition of human MDA-MB-435 cells at 10 uM incubated for 48 hrs by sulforhodamine B assay relative to control
[29] = tested on: IGROV-1; assay: Growth inhibition of human IGROV-1 cells at 10 uM incubated for 48 hrs by sulforhodamine B assay relative to control
[30] = tested on: OVCAR-5; assay: Growth inhibition of human OVCAR-5 cells at 10 uM incubated for 48 hrs by sulforhodamine B assay relative to control
[31] = tested on: NCI-H226; assay: Growth inhibition of human NCI-H226 cells at 10 uM incubated for 48 hrs by sulforhodamine B assay relative to control
[32] = tested on: RXF 393; assay: Growth inhibition of human RXF 393 cells at 10 uM incubated for 48 hrs by sulforhodamine B assay relative to control
[33] = tested on: SF-268; assay: Growth inhibition of human SF-268 cells at 10 uM incubated for 48 hrs by sulforhodamine B assay relative to control
[34] = tested on: UACC-257; assay: Growth inhibition of human UACC-257 cells at 10 uM incubated for 48 hrs by sulforhodamine B assay relative to control
[35] = tested on: M14; assay: Growth inhibition of human M14 cells at 10 uM incubated for 48 hrs by sulforhodamine B assay relative to control
[36] = tested on: K562; assay: Growth inhibition of human K562 cells at 10 uM incubated for 48 hrs by sulforhodamine B assay relative to control
[37] = tested on: NCI-H522; assay: Growth inhibition of human NCI-H522 cells at 10 uM incubated for 48 hrs by sulforhodamine B assay relative to control
[38] = tested on: NCI-H322M; assay: Growth inhibition of human NCI-H322M cells at 10 uM incubated for 48 hrs by sulforhodamine B assay relative to control
[39] = tested on: ACHN; assay: Growth inhibition of human ACHN cells at 10 uM incubated for 48 hrs by sulforhodamine B assay relative to control
[40] = tested on: HT-29; assay: Growth inhibition of human HT-29 cells at 10 uM incubated for 48 hrs by sulforhodamine B assay relative to control
[41] = tested on: NCI-H23; assay: Growth inhibition of human NCI-H23 cells at 10 uM incubated for 48 hrs by sulforhodamine B assay relative to control
[42] = tested on: SK-MEL-5; assay: Growth inhibition of human SK-MEL-5 cells at 10 uM incubated for 48 hrs by sulforhodamine B assay relative to control
[43] = tested on: CAKI-1; assay: Growth inhibition of human CAKI-1 cells at 10 uM incubated for 48 hrs by sulforhodamine B assay relative to control
[44] = tested on: NCI/ADR-RES; assay: Growth inhibition of human NCI/ADR-RES cells at 10 uM incubated for 48 hrs by sulforhodamine B assay relative to control

## O=C(CNC1CCCCC1)Nc1ccc(-c2nc3ccccc3s2)cc1
[1]
  inhibition of growth at 10 µM: 51.2%
[2]
  inhibition of growth at 10 µM: 9.23%
[3]
  inhibition of growth at 10 µM: 12%
[4]
  inhibition of growth at 10 µM: -5.44%
[5]
  inhibition of growth at 10 µM: 22.4%
[6]
  inhibition of growth at 10 µM: 22.7%
[7]
  inhibition of growth at 10 µM: 72%
[8]
  inhibition of growth at 10 µM: 5.98%
[9]
  inhibition of growth at 10 µM: 16.1%
[10]
  inhibition of growth at 10 µM: 37.1%
[11]
  inhibition of growth at 10 µM: 8.69%
[12]
  inhibition of growth at 10 µM: 53.8%
[13]
  inhibition of growth at 10 µM: 23%
[14]
  inhibition of growth at 10 µM: 29.4%
[15]
  inhibition of growth at 10 µM: 4.77%
[16]
  inhibition of growth at 10 µM: 4.58%
[17]
  inhibition of growth at 10 µM: 10.7%
[18]
  inhibition of growth at 10 µM: -2.86%
[19]
  inhibition of growth at 10 µM: -0.38%
[20]
  inhibition of growth at 10 µM: 30.9%
[21]
  inhibition of growth at 10 µM: 12.4%
[22]
  inhibition of growth at 10 µM: 32.7%
[23]
  inhibition of growth at 10 µM: 12.7%
[24]
  inhibition of growth at 10 µM: 15.6%
[25]
  inhibition of growth at 10 µM: 26.1%
[26]
  inhibition of growth at 10 µM: 9.04%
[27]
  inhibition of growth at 10 µM: 3.76%
[28]
  inhibition of growth at 10 µM: 9.63%
[29]
  inhibition of growth at 10 µM: -0.35%
[30]
  inhibition of growth at 10 µM: 5.32%
[31]
  inhibition of growth at 10 µM: 19.7%
[32]
  inhibition of growth at 10 µM: 31.5%
[33]
  inhibition of growth at 10 µM: 21.6%
[34]
  inhibition of growth at 10 µM: -4.65%
[35]
  inhibition of growth at 10 µM: 10.6%
[36]
  inhibition of growth at 10 µM: 50.5%
[37]
  inhibition of growth at 10 µM: 4.54%
[38]
  inhibition of growth at 10 µM: 8.27%
[39]
  inhibition of growth at 10 µM: 0.89%
[40]
  inhibition of growth at 10 µM: 37.7%
[41]
  inhibition of growth at 10 µM: 23.8%
[42]
  inhibition of growth at 10 µM: 9.16%
[43]
  inhibition of growth at 10 µM: 14%
[44]
  inhibition of growth at 10 µM: 11%

## COc1ccc(NCC(=O)Nc2ccc(-c3nc4ccccc4s3)cc2)cc1
[1]
  inhibition of growth at 10 µM: 29.1%
[2]
  inhibition of growth at 10 µM: -7.58%
[3]
  inhibition of growth at 10 µM: 10.5%
[4]
  inhibition of growth at 10 µM: -26%
[5]
  inhibition of growth at 10 µM: 13.6%
[6]
  inhibition of growth at 10 µM: 40.8%
[7]
  inhibition of growth at 10 µM: 35%
[8]
  inhibition of growth at 10 µM: 3.44%
[9]
  inhibition of growth at 10 µM: 3.03%
[10]
  inhibition of growth at 10 µM: 10.1%
[11]
  inhibition of growth at 10 µM: 0.74%
[12]
  inhibition of growth at 10 µM: 27.5%
[13]
  inhibition of growth at 10 µM: 11.6%
[14]
  inhibition of growth at 10 µM: 14.8%
[15]
  inhibition of growth at 10 µM: -11.1%
[16]
  inhibition of growth at 10 µM: -6.9%
[17]
  inhibition of growth at 10 µM: 0.77%
[18]
  inhibition of growth at 10 µM: -8.6%
[19]
  inhibition of growth at 10 µM: -4.02%
[20]
  inhibition of growth at 10 µM: 31.2%
[21]
  inhibition of growth at 10 µM: 15.2%
[22]
  inhibition of growth at 10 µM: 25.4%
[23]
  inhibition of growth at 10 µM: 3.49%
[24]
  inhibition of growth at 10 µM: 12.8%
[25]
  inhibition of growth at 10 µM: 8.68%
[26]
  inhibition of growth at 10 µM: 11.4%
[27]
  inhibition of growth at 10 µM: 0.37%
[28]
  inhibition of growth at 10 µM: -7.51%
[29]
  inhibition of growth at 10 µM: 7.74%
[30]
  inhibition of growth at 10 µM: 1.84%
[31]
  inhibition of growth at 10 µM: 5.16%
[32]
  inhibition of growth at 10 µM: -1.89%
[33]
  inhibition of growth at 10 µM: 10.5%
[34]
  inhibition of growth at 10 µM: -3.88%
[35]
  inhibition of growth at 10 µM: 0.16%
[36]
  inhibition of growth at 10 µM: 11.6%
[37]
  inhibition of growth at 10 µM: 5.02%
[38]
  inhibition of growth at 10 µM: 3%
[39]
  inhibition of growth at 10 µM: -3.5%
[40]
  inhibition of growth at 10 µM: -8.15%
[41]
  inhibition of growth at 10 µM: 14.3%
[42]
  inhibition of growth at 10 µM: 2.74%
[43]
  inhibition of growth at 10 µM: -2.81%
[44]
  inhibition of growth at 10 µM: -1.88%
